These are literature values, as cited in patent publication US20180271924A1, “COMPOUND AND METHOD FOR REDUCING INFLAMMATION, PAIN, ALLERGY, FLU AND COLD SYMPTOMS” (priority 2018, published 2018).

Each structure is given as a SMILES string. In brackets after ≈: the same amount, converted by molar mass. Where two headings read alike, the source gives them in different places.

The conditions of data set [1]: DPPH. In general terms: DPPH is a stable violet radical that fades when it is reduced.
For data set [2] the following is noted: extract 100, 300, 500 mg/kg.
Another data set has as its system mu-opioid binding sites. As to conditions: corresponds to K value.
Data set [3] deals with mu-, delta- and kappa-opioid binding sites.
The target of another data set is ORL1-binding sites (Cavia porcellus, UniProt P47748).
Another data set deals with T1, ORL1 receptors (Cavia porcellus, UniProt P47748).
T1 construct: functional ORL1 receptors in the guinea pig small intestine; from tissue; host or cells: guinea pig small intestine
Conditions: guinea pig small intestine.

Another data set concerns the target T2, kappa receptors (Rattus norvegicus, UniProt P34975).
T2 construct: membranes prepared from rat central nervous system; from tissue; host or cells: rat central nervous system membranes
Conditions: rat CNS membranes.

Another data set has as its target T3, mu receptors (Rattus norvegicus, UniProt P33535).
T3 construct: membranes prepared from rat central nervous system; from tissue; host or cells: rat central nervous system membranes
As to conditions: rat CNS membranes.

A further data set concerns the target T4, delta opioid receptor (Rattus norvegicus, UniProt P33533).
T4 construct: membranes prepared from rat central nervous system; from tissue; host or cells: rat central nervous system membranes
Conditions: rat CNS membranes.

For data set [4] the following is noted: 0.5 mg/kg.
For data set [5] the following is noted: 20.0 mg/kg.
Data set [6] deals with dividing and non-dividing cells.
For data set [7] the following is noted: extract 100, 300, 500 mg/kg; diazepam 0.1-1 mg/kg; caffeine 10, 30, 100 mg/kg.
For data set [8] the following is noted: extract 100, 300, 500 mg/kg; diazepam 0.1-1 mg/kg.
For data set [9] the following is noted: 200 mg/kg.
The conditions of data set [10]: human studies.
Test in data set [11]: not given
The source holds these as a separate data set.

For data set [12] the following is noted: 5 mg THC.
For data set [13] the following is noted: 50 mg THC daily.
The conditions of data set [14]: anesthetized rats; reversed by naloxone.
The conditions of data set [15]: mitragynine 2 mg/mL.
Test in data set [16]: not given
This is another data set of the same source.

For data set [17] the following is noted: extract 300, 500 mg/kg.
For data set [18] the following is noted: subcutaneous.
For data set [19] the following is noted: mouse, in vivo.
Another data set deals with mast cells. Conditions: induced by compound 48/80.

Sequence of ORL1-binding sites (P47748 whole entry): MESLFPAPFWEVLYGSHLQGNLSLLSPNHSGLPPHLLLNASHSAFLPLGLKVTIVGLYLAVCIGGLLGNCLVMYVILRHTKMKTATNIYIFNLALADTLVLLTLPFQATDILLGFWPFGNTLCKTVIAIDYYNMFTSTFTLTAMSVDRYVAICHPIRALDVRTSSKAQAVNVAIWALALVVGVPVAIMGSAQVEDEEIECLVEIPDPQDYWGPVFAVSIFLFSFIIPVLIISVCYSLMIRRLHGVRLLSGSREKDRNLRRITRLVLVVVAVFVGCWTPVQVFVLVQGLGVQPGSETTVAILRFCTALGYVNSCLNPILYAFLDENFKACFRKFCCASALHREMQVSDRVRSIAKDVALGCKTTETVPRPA
T4 sequence (P33533 whole entry): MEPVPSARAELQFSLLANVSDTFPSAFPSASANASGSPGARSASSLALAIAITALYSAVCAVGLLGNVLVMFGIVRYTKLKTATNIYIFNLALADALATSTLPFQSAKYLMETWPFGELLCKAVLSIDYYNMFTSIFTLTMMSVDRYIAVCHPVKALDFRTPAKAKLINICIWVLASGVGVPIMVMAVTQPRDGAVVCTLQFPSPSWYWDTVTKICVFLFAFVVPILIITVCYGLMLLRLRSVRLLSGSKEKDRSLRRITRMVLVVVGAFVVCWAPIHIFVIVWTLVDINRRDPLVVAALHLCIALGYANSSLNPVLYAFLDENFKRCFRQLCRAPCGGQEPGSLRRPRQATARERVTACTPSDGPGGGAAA
T3 sequence (P33535 whole entry): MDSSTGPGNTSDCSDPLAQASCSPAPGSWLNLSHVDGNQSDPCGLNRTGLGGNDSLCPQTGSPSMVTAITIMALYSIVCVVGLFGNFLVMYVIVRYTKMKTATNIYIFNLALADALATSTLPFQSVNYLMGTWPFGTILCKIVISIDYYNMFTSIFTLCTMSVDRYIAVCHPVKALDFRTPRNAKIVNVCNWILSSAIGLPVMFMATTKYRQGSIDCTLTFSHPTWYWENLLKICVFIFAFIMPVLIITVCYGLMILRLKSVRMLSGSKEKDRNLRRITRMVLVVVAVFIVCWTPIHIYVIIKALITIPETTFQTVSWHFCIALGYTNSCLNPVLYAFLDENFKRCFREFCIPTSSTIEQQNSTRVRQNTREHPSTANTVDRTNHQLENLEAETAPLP
T1 sequence (P47748 whole entry): as the sequence (P47748 whole entry) above
T2 sequence (P34975 whole entry): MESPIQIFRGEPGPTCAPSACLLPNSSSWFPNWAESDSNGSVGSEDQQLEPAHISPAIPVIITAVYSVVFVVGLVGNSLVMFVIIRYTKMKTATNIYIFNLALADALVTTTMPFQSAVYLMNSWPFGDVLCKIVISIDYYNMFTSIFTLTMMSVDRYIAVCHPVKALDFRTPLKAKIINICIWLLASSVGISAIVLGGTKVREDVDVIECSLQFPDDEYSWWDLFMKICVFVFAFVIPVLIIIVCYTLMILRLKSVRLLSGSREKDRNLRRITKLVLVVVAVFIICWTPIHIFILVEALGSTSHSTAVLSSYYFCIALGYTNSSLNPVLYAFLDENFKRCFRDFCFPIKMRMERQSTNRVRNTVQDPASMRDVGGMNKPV

In the case of `O=C1O[C@H]([C@@H](O)CO)C(O)=C1O` [ascorbic acid], in data set [1], the “EC50 (free radical scavenging)” value was 1.07 mg/L (≈ 6.08 µM).
As for `CN1[C@@H]2CC[C@H]1C[C@@H](OC(=O)C(CO)c1ccccc1)C2` (stereo partly drawn) [Atropine], the “protection against acetylcholine-induced bronchoconstriction and cough” value in data set [2] was “significantly (P<0.05-0.0001) protected”.
For the compound `C/C=C1/CN2CC[C@@]34c5cc(O)ccc5N(C)[C@]35OC[C@@]4(C(=O)OC)[C@H]1C[C@H]25` [akuammine], the solubility in water result is reported as “slightly soluble in water”. Further, the affinity in the data set with mu-opioid binding sites was 2.1 mM⁻¹. In addition, the “opioid binding (words)” value in [3] was “low affinity”. In addition, the “affinity for ORL1-binding sites (words)” value on ORL1-binding sites is “neither akuammine nor any of the other alkaloids showed appreciable affinity”. The “affinity for ORL1-binding sites (words)” value on ORL1-binding sites (listed as Akuammine) was “little affinity”. The “character at opioid receptors” value in the data set on opioid receptors is reported as “opioid antagonist”. Also, on ORL1 receptors, the “antagonism of nociceptin at functional ORL1 receptors” value is “does not antagonize nociceptin”. The “affinity for kappa receptors” value at kappa receptors is given as “micromolecular affinities”. In addition, the “affinity for mu receptors” value at mu receptors is “micromolecular affinities”. Moreover, the “affinity for delta opioid receptor relative to kappa and mu” value at delta opioid receptor is reported as “ten times lower”.
Turning to `CN1CC[C@]2(c3cccc4c3N[C@@H]3N(C)CC[C@]43[C@@]34CCN(C)[C@@H]3Nc3ccccc34)c3ccccc3N[C@H]12` [hodgkinsine], in data set [4], the “analgesic activity, tail-flick” value is given as “comparable to that of 6.0 mg/kg of morphine”. Also, the “analgesic activity, hot-plate” value in data set [5] was “comparable with 6.0 mg/kg of morphine”. For the same compound, in [6], the cytotoxicity result is on record as “low cytotoxicity”.
`CN1C(=O)CN=C(c2ccccc2)c2cc(Cl)ccc21` [diazepam]: the “effect in open arm test” value in [7] was “dose dependently and significantly increased the percentage of open arm entries”. Also, in [8], the “frequency of central zone entries” value is “dose dependently increased the frequency of central zone entries”.
With `CC(=O)Oc1ccccc1C(=O)O` [aspirin], the mean percentage antipyrexia in data set [9] was 29.0%.
Turning to `CCCCCc1cc(O)c2c(c1)OC(C)(C)[C@@H]1CCC(C)=C[C@@H]21` [THC, delta-9-tetrahydrocannabinol], in data set [10], the analgesia versus placebo entry is on record as “significantly superior to placebo” and the “time of peak analgesia” value is “around 5 hours”. In addition, the “pain relief versus placebo” value in data set [11] (10 cancer pain patients, at doses of 15 and 20 mg) was “pain relief significantly superior to placebo”. For the same compound, the “pain relief, THC versus codeine” value in data set [11] (36 cancer pain patients, 20 mg THC, 120 mg codeine) is reported as “equally effective”. Further, the effect on spasticity entry in [12] is recorded as “significant effect on spasticity”. For the same compound, the analgesic effect result in [12] (50 mg codeine) is given as “analgesic effect in comparison with placebo”. The morphine requirement result in data set [13] is recorded as “morphine requirement was significantly reduced (P<0.01)”.
`CC[C@@H]1CN2CCc3c([nH]c4cccc(OC)c34)[C@@H]2C[C@@H]1/C(=C\OC)C(=O)OC` [mitragynine]: in data set [14], the gastric acid secretion entry is reported as “inhibition of 2-deoxy-D-glucose-stimulated gastric acid secretion in a dose dependent manner”. Moreover, the “nerve conduction, compound nerve action potential” value in data set [15] is “blocked the nerve conduction”. Also, in data set [16] (dose levels of 800-900 mg/kg in rodents), the toxicity entry is “no toxicity”. In addition, the lethality result in data set [16] (oral 200 mg/kg, rats) is given as “lethal effects”.
As to `COc1ccc(CN(CCN(C)C)c2ccccn2)cc1` [mepyramine], the “histamine-induced bronchoconstriction and cough” value in [17] was “reduced significantly (P<0.01-0.0001) bronchoconstriction and cough induced by histamine”.
Consider `CC[C@@H]1CN2CC[C@@]3(O)C(=Nc4cccc(OC)c43)[C@@H]2C[C@@H]1/C(=C\OC)C(=O)OC` [7-hydroxymitragynine], for which the gastrointestinal transit result in data set [18] is “inhibition of the gastrointestinal transit”.
For the compound `O=C(O)c1cc(=O)c2c(OCC(O)COc3cccc4oc(C(=O)O)cc(=O)c34)cccc2o1` [sodium cromoglicate], in data set [19], the “tracheal phenol red secretion (muco-suppressant)” value is recorded as “caused a reduction (P<0.01) in tracheal phenol red secretion”. Moreover, the mast cell degranulation result in the data set on mast cells is “reduce significantly (P<0.01) mast cell degranulation”.
